Reference: patent US8952024B2, “Herbicidal pyrimidone derivatives” (E I du Pont de Nemours and Company, priority 2009, dated 2015)

Experiments:
Assay type in all cases: in vivo
[1] = tested on: wheat (Triticum aestivum); assay: Test A pre-/postemergence plant response; settings: for Wheat plant response rating: visual injury, 0 to 100 scale (0 no effect, 100 complete control), approx. ten days
Outline: (§1)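 Approximately ten days after concurrent pre- and postemergence spraying in a greenhouse, plants were compared with untreated controls and rated visually for injury, 0 = no effect to 100 = complete control. Preemergence spray was directed onto loam/sand soil; postemergence targeted 1–2 leaf seedlings.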

[2] = tested on: barnyardgrass (Echinochloa crus-galli); assay: Test A pre-/postemergence plant response; settings: for Barnyardgrass plant response rating: visual injury, 0 to 100 scale (0 no effect, 100 complete control), approx. ten days
Outline: as §1

[3] = tested on: pigweed (Amaranthus retroflexus); assay: Test A pre-/postemergence plant response; settings: for Pigweed plant response rating: visual injury, 0 to 100 scale (0 no effect, 100 complete control), approx. ten days
Outline: as §1

[4] = tested on: morningglory (Ipomoea spp.); assay: Test A pre-/postemergence plant response; settings: for Morningglory plant response rating: visual injury, 0 to 100 scale (0 no effect, 100 complete control), approx. ten days
Outline: as §1

[5] = tested on: large crabgrass (Digitaria sanguinalis); assay: Test A pre-/postemergence plant response; settings: for Crabgrass, Large plant response rating: visual injury, 0 to 100 scale (0 no effect, 100 complete control), approx. ten days
Outline: as §1

[6] = tested on: giant foxtail (Setaria faberii); assay: Test A pre-/postemergence plant response; settings: for Foxtail, Giant plant response rating: visual injury, 0 to 100 scale (0 no effect, 100 complete control), approx. ten days
Outline: as §1

corn (Zea mays) = assay: Test A pre-/postemergence plant response; settings: for Corn plant response rating: visual injury, 0 to 100 scale (0 no effect, 100 complete control), approx. ten days
Outline: as §1

[7] = tested on: velvetleaf (Abutilon theophrasti); assay: Test A pre-/postemergence plant response; settings: for Velvetleaf plant response rating: visual injury, 0 to 100 scale (0 no effect, 100 complete control), approx. ten days
Outline: as §1

[8] = tested on: ducksalad (Heteranthera limosa); assay: Test B flooded paddy test; settings: for Plant response rating, Flood, Ducksalad: 250 g ai/ha, flooded paddy test, visual rating on 0 to 100 scale (0 no effect, 100 complete control) after 13 to 15 days; for Plant response rating, Ducksalad: Flood (flooded paddy test), 13 to 15 days; for Ducksalad plant response rating: Flood, 31 g ai/ha, scale 0 to 100 (0 no effect, 100 complete control)
Outline: (§2)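 Greenhouse-held for 13 to 15 days, treated pots were compared visually with controls and scored 0–100 (0, no effect). Treatment had been made into paddy water kept at 3 cm above the soil, with plants at the 2-leaf stage.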

[9] = tested on: barnyardgrass (Echinochloa crus-galli); assay: Test B flooded paddy test; settings: for Plant response rating, Flood, Barnyardgrass: 250 g ai/ha, flooded paddy test, visual rating on 0 to 100 scale (0 no effect, 100 complete control) after 13 to 15 days; for Plant response rating, Barnyardgrass: Flood (flooded paddy test), 13 to 15 days; for Barnyardgrass plant response rating: Flood, 31 g ai/ha, scale 0 to 100 (0 no effect, 100 complete control)
Outline: as §2

rice (Oryza sativa) = assay: Test B flooded paddy test; settings: for Plant response rating, Flood, Rice: 250 g ai/ha, flooded paddy test, visual rating on 0 to 100 scale (0 no effect, 100 complete control) after 13 to 15 days; for Plant response rating, Rice: Flood (flooded paddy test), 13 to 15 days; for Rice plant response rating: Flood, 31 g ai/ha, scale 0 to 100 (0 no effect, 100 complete control)
Outline: as §2

[10] = tested on: umbrella sedge (Cyperus difformis); assay: Test B flooded paddy test; settings: for Plant response rating, Flood, Sedge, Umbrella: 250 g ai/ha, flooded paddy test, visual rating on 0 to 100 scale (0 no effect, 100 complete control) after 13 to 15 days; for Plant response rating, Sedge, Umbrella: Flood (flooded paddy test), 13 to 15 days; for Sedge, Umbrella plant response rating: Flood, 31 g ai/ha, scale 0 to 100 (0 no effect, 100 complete control)
Outline: as §2

[11] = Postemergence, 125 g ai/ha, 0 to 100 scale where 0 is no effect and 100 is complete control
[12] = Preemergence, 125 g ai/ha, 0 to 100 scale, 0 = no effect, 100 = complete control
[13] = Preemergence, 500 g ai/ha, 0 to 100 scale, 0 = no effect, 100 = complete control
[14] = 62 g ai/ha, scale of 0 to 100 where 0 is no effect and 100 is complete control
[15] = 125 g ai/ha, scale 0 to 100, 0 is no effect, 100 is complete control

CCn1c(Cc2ccccc2)ncc(C(=O)C2=C(O)CCCC2=O)c1=O [Compound 200]
Plant response rating, Wheat [1, 11]: 0 | Wheat plant response rating ([1]; Postemergence, 500 g ai/ha): 0 | Plant response rating, Wheat [1, 12]: 0 | Plant response rating, Wheat [1, 13]: 0 | Plant response rating, Barnyardgrass [2, 11]: 0 | Barnyardgrass plant response rating ([2]; Postemergence, 500 g ai/ha): 10 | Plant response rating, Barnyardgrass [2, 12]: 0 | Plant response rating, Barnyardgrass [2, 13]: 0 | Plant response rating, Pigweed [3, 11]: 60 | Pigweed plant response rating ([3]; Postemergence, 500 g ai/ha): 80 | Plant response rating, Pigweed [3, 12]: 0 | Plant response rating, Pigweed [3, 13]: 20 | Plant response rating, Morningglory [4, 11]: 50 | Morningglory plant response rating ([4]; Postemergence, 500 g ai/ha): 60 | Plant response rating, Morningglory [4, 12]: 0 | Plant response rating, Crabgrass, Large [5, 11]: 10 | Crabgrass, Large plant response rating ([5]; Postemergence, 500 g ai/ha): 10 | Plant response rating, Crabgrass, Large [5, 12]: 0 | Plant response rating, Crabgrass, Large [5, 13]: 0 | Plant response rating, Foxtail, Giant [6, 11]: 0 | Foxtail, Giant plant response rating ([6]; Postemergence, 500 g ai/ha): 10 | Plant response rating, Foxtail, Giant [6, 12]: 0 | Plant response rating, Foxtail, Giant [6, 13]: 0 | Plant response rating, Corn (corn (Zea mays); [11]): 0 | Corn plant response rating (corn (Zea mays); Postemergence, 500 g ai/ha): 0 | Plant response rating, Corn (corn (Zea mays); [12]): 0 | Plant response rating, Corn (corn (Zea mays); [13]): 0 | Plant response rating, Velvetleaf [7, 11]: 100 | Velvetleaf plant response rating ([7]; Postemergence, 500 g ai/ha): 100 | Plant response rating, Velvetleaf [7, 12]: 0 | Plant response rating, Velvetleaf [7, 13]: 60 | Plant response rating, Flood, Ducksalad [8]: 85 | Plant response rating, Ducksalad [8, 14]: 83 | Plant response rating, Ducksalad [8, 15]: 85 | Ducksalad plant response rating [8]: 38 | Plant response rating, Flood, Barnyardgrass [9]: 38 | Plant response rating, Barnyardgrass [9, 14]: 0 | Plant response rating, Barnyardgrass [9, 15]: 23 | Barnyardgrass plant response rating [9]: 0 | Plant response rating, Flood, Rice (rice (Oryza sativa)): 23 | Plant response rating, Rice (rice (Oryza sativa); [14]): 0 | Plant response rating, Rice (rice (Oryza sativa); [15]): 10 | Rice plant response rating (rice (Oryza sativa)): 0 | Plant response rating, Flood, Sedge, Umbrella [10]: 70 | Plant response rating, Sedge, Umbrella [10, 14]: 33 | Plant response rating, Sedge, Umbrella [10, 15]: 43 | Sedge, Umbrella plant response rating [10]: 30

COc1ccc(-n2c(-c3cccc(F)c3)ncc(C(=O)C3=C(O)CCCC3=O)c2=O)cc1 [Compound 203]
Plant response rating, Wheat [1, 11]: 0 | Wheat plant response rating ([1]; Postemergence, 500 g ai/ha): 30 | Plant response rating, Wheat [1, 12]: 0 | Plant response rating, Wheat [1, 13]: 30 | Plant response rating, Barnyardgrass [2, 11]: 80 | Barnyardgrass plant response rating ([2]; Postemergence, 500 g ai/ha): 100 | Plant response rating, Barnyardgrass [2, 12]: 30 | Plant response rating, Barnyardgrass [2, 13]: 70 | Plant response rating, Pigweed [3, 11]: 100 | Pigweed plant response rating ([3]; Postemergence, 500 g ai/ha): 100 | Plant response rating, Pigweed [3, 12]: 100 | Plant response rating, Pigweed [3, 13]: 100 | Plant response rating, Morningglory [4, 11]: 100 | Morningglory plant response rating ([4]; Postemergence, 500 g ai/ha): 100 | Plant response rating, Morningglory [4, 12]: 0 | Plant response rating, Morningglory [4, 13]: 70 | Plant response rating, Crabgrass, Large [5, 11]: 30 | Crabgrass, Large plant response rating ([5]; Postemergence, 500 g ai/ha): 70 | Plant response rating, Crabgrass, Large [5, 12]: 20 | Plant response rating, Crabgrass, Large [5, 13]: 70 | Plant response rating, Foxtail, Giant [6, 11]: 30 | Foxtail, Giant plant response rating ([6]; Postemergence, 500 g ai/ha): 80 | Plant response rating, Foxtail, Giant [6, 12]: 30 | Plant response rating, Foxtail, Giant [6, 13]: 90 | Plant response rating, Corn (corn (Zea mays); [11]): 0 | Corn plant response rating (corn (Zea mays); Postemergence, 500 g ai/ha): 30 | Plant response rating, Corn (corn (Zea mays); [12]): 0 | Plant response rating, Corn (corn (Zea mays); [13]): 20 | Plant response rating, Velvetleaf [7, 11]: 90 | Velvetleaf plant response rating ([7]; Postemergence, 500 g ai/ha): 100 | Plant response rating, Velvetleaf [7, 12]: 50 | Plant response rating, Velvetleaf [7, 13]: 80 | Plant response rating, Flood, Ducksalad [8]: 95 | Plant response rating, Ducksalad [8, 14]: 75 | Plant response rating, Ducksalad [8, 15]: 95 | Ducksalad plant response rating [8]: 40 | Plant response rating, Flood, Barnyardgrass [9]: 20 | Plant response rating, Barnyardgrass [9, 14]: 0 | Plant response rating, Barnyardgrass [9, 15]: 0 | Barnyardgrass plant response rating [9]: 0 | Plant response rating, Flood, Rice (rice (Oryza sativa)): 0 | Plant response rating, Rice (rice (Oryza sativa); [14]): 0 | Plant response rating, Rice (rice (Oryza sativa); [15]): 0 | Rice plant response rating (rice (Oryza sativa)): 0 | Plant response rating, Flood, Sedge, Umbrella [10]: 85 | Plant response rating, Sedge, Umbrella [10, 14]: 65 | Plant response rating, Sedge, Umbrella [10, 15]: 75 | Sedge, Umbrella plant response rating [10]: 0
